According to patent US11236354B2, “Glyphosate-n-acetyltransferase (GLYAT) sequences and methods of use” (PIONEER HI-BRED INTERNATIONAL, INC., priority 2013, dated 2022):

Target: GLYAT variant SEQ ID NO:5 (derived from SEQ ID NO:1 and 2) (Bacillus licheniformis, UniProt Q65LG7, A28V/D131E/E14D/E65Q/E67K/E68K/G37R/I132T/I135A/I15L/I19V/I53V/I91V/K101R/K144R/K58Q/L105M/L106I/L26I/L97I/M75V/R47G/R92K/T89S/V114A/Y130F/Y45F)
Assay: Substrate saturation kinetic analysis of purified GLYAT
Conditions: pH 7.0
Experimental: Cells were lysed with BPER (Pierce) containing 1 mM dithiothreitol, 0.2 mg/ml lysozyme, 2 mg/ml protease inhibitor cocktail (Sigma bacterial cell cocktail, P8465) and endonuclease. Lysate supernatants were passed through a column of NHS-activated Agarose (Thermo, #26197) derivatized with coenzyme A. Columns were washed with 25 mM Hepes, pH 7, containing progressively higher concentrations of KCl, then eluted with 25 mM Hepes, 100 mM KCl, 10% ethylene glycol and 1 mM acetyl CoA. Purity as evaluated by polyacrylamide gel electrophoresis was deemed consistently high enough to be assumed to be 100%. Protein concentration was determined with the Bradford assay using a large-scale lot of produced GLYAT protein as standard.
Kinetic parameters for various substrates were obtained using a range of seven substrate concentrations plus a blank containing none of the varied substrate. The non-varied substrate was present at a saturating concentration. Six-microliter aliquots of 50-fold concentrated stock solutions of the varied substrate were placed in a 96-well assay plate (Greiner BioOne UV-Star). Reactions were started with the addition of 294 ul of 25 mM Hepes, pH 7.0, 100 mM KCL, 10% ethylene glycol, the non-varied substrate and 10 to 200 nM enzyme. Absorbance was monitored for one minute with a Spectramax 384 Plus plate reader (Molecular Devices). If the amino acid present at position 30 (29 if alanine is absent at position 2) was cysteine, absorbance was monitored at 235 nm, which directly detects cleavage of the sulfoester bond of acetyl CoA. If the amino acid present at position 30 (29 if alanine is absent at position 2) was isoleucine, 0.5 mM 5,5′-dithiobis-(2-nitrobenzoic acid), which reacts with the coenzyme A thiol generated in the enzyme catalyzed reaction, was included in the reaction mix and absorbance was monitored at 412 nm. Initial rates were processed by the Softmax software to obtain kinetic parameters, using the double-reciprocal transformation.

With N[C@@H](CC(=O)O)C(=O)O [aspartate] the “Asp as % of glyph (kcat/KM asp / kcat/KM glyph)” value was 0.059%.
